{"source": "patent US11821042B2", "about": "“Targeting chromosomal instability and downstream cytosolic DNA signaling for cancer treatment” (Cornell University, priority 2017, dated 2023)", "system": "MDA-MB-231 cells", "test": "In vitro invasion assay through collagen membrane (CytoSelect)", "type": "cell-based, human", "details": "addition to MCAK (CIN-low) cells", "experimental": "For the invasion and migration/chemotaxis assays the CytoSelect cell invasion (CBA-110) and cell migration (CBA-100) kits, respectively, were used. Briefly, 3×10^5 cells were suspended in serum-free media and placed on top of the membrane. […] For the chemotaxis assay, we used a colorimetric approach (OD 560 nm) for quantification. For the scratch assay, cells were treated with mitomycin C (10 μgml^−1) for 1 hour when they reached >90% confluence and then placed in DMEM containing 1% FBS. Wounds were applied using p200 pipette tip and images of the wound were taken immediately and at subsequent regular intervals. ImageJ was used for quantification of wound surface area."}
{"smiles": "Nc1nc2c(ncn2[C@@H]2O[C@@H]3COP(=O)(O)O[C@H]4[C@@H](O)[C@H](n5cnc6c(N)ncnc65)O[C@@H]4COP(=O)(O)O[C@@H]2[C@@H]3O)c(=O)[nH]1", "note": "[cGAMP, cyclic guanosine monophosphate-adenosine monophosphate]", "values": [{"measurement": "ability to migrate and invade through a collagen membrane", "value": "increased"}]}
